In ChEMBL document CHEMBL5380823, “Application and Study of ROCK Inhibitors in Pulmonary Fibrosis: Recent Developments and Future Perspectives” (J Med Chem, 2023):

Experiments:
[1] = biological target: T1, Rho-associated protein kinase 2 (Homo sapiens, UniProt O75116); experiment: Inhibition of ROCK2 (unknown origin)
[2] = Oral bioavailability in BLM-induced Sprague-Dawley rat at 2 mg/kg measured upto 24 hrs; assay type: ADME, organism-based; details: in vivo
[3] = Half life in BLM-induced Sprague-Dawley rat at 1 mg/kg, iv measured upto 24 hrs; assay type: ADME, organism-based; details: in vivo
[4] = biological target: T1, Rho-associated protein kinase 2; experiment: Binding affinity to ROCK2 (unknown origin) assessed as inhibition constant
[5] = biological target: Rho-associated protein kinase 1 (Homo sapiens, UniProt Q13464); experiment: Binding affinity to ROCK1 (unknown origin) assessed as inhibition constant
Chain of Rho-associated protein kinase 1 (Q13464 whole entry): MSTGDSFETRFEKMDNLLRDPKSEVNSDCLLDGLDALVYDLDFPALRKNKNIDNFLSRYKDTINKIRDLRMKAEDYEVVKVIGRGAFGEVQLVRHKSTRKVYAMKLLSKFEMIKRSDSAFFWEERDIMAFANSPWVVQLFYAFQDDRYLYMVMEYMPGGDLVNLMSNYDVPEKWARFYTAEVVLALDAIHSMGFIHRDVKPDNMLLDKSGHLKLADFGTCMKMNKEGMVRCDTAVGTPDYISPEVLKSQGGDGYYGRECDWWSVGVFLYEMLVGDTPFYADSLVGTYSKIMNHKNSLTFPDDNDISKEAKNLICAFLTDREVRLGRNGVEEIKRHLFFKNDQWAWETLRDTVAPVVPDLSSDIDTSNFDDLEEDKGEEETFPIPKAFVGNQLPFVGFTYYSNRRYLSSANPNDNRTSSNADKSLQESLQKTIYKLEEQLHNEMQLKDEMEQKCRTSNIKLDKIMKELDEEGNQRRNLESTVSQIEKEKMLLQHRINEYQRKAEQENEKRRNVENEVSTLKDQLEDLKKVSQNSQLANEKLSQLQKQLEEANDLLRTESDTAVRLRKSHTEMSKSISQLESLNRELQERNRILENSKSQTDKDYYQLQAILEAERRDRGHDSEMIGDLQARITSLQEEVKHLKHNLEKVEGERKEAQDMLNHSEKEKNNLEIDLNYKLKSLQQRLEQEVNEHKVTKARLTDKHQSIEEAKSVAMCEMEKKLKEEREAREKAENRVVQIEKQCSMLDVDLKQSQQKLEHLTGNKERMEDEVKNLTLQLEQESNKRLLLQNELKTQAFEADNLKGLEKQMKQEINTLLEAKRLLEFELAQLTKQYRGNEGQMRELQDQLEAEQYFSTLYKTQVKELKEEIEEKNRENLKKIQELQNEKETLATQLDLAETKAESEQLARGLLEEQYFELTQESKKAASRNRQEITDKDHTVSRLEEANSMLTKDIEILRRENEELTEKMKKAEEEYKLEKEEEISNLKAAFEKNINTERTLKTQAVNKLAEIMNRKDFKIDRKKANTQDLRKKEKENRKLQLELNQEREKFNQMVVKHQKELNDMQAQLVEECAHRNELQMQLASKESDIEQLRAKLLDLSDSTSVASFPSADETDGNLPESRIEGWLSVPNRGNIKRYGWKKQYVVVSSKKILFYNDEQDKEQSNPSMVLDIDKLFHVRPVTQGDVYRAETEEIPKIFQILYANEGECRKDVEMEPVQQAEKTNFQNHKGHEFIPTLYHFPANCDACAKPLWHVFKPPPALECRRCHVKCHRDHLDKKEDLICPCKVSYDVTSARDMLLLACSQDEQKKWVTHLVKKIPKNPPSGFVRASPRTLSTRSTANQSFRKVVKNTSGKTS

[6] = Half life in iv dosed Wistar rat at 0.5 mg/kg; assay type: ADME, organism-based; details: in vivo
[7] = Oral bioavailability in Wistar rat at 1 mg/kg; assay type: ADME, organism-based; details: in vivo

T1 sequence (O75116 whole entry): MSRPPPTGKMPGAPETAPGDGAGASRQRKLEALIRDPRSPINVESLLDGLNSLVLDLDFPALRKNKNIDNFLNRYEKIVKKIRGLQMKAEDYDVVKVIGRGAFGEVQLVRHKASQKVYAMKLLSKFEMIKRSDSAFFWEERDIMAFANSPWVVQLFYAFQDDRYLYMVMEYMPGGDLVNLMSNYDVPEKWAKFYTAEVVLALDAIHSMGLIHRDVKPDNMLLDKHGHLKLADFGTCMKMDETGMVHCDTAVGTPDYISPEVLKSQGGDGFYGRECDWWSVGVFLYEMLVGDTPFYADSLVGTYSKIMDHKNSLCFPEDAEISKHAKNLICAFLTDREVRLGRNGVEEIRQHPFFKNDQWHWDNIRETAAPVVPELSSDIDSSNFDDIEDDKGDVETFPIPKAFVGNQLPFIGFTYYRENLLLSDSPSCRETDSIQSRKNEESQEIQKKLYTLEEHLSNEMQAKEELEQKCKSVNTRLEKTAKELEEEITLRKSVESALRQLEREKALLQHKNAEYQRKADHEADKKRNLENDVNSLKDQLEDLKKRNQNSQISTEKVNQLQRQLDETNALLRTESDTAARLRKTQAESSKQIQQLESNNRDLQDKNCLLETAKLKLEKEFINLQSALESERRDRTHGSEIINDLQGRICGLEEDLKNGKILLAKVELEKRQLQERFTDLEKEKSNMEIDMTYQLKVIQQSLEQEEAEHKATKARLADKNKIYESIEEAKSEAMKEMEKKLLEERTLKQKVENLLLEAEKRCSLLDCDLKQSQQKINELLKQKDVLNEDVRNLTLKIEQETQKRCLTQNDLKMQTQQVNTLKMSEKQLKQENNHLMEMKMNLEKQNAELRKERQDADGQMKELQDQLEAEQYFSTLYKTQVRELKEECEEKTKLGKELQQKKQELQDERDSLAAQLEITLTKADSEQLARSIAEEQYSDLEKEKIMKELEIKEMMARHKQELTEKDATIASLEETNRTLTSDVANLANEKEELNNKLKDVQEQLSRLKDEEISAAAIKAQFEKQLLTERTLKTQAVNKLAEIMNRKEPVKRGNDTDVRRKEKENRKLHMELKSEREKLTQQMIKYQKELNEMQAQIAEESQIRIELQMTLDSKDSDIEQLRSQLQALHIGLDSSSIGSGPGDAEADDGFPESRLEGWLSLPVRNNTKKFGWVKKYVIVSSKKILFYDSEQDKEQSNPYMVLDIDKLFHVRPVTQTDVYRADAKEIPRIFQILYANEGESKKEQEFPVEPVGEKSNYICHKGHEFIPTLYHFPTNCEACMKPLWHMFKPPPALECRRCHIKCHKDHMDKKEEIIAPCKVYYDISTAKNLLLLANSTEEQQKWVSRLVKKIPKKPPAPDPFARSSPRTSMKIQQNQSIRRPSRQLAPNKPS

| SMILES | IC50 [1] [nM] | other results |
| --- | --- | --- |
| Cc1c(C(=O)N[C@H]2C[C@]3(C2)C[C@H](c2n[nH]c(=O)c4ccccc42)C3)cnn1-c1ccccc1 (stereo partly drawn) | 0.2 | – |
| COc1cccc(C(CO)NC(=O)c2cccc(-c3ccc4[nH]ncc4c3)c2)c1 (stereo not drawn) | – | bioavailability [2]: 45%; half-life [3]: 2.9 h |
| COc1cccc(Cn2cnn(-c3ccc(-c4cn[nH]c4)cc3)c2=O)c1 | < 5 | – |
| c1cc(Oc2ccc3c(c2)CNCC3)c2c(-c3ccncc3)c[nH]c2c1 | – | Ki [4]: < 3 nM; Ki [5]: < 3 nM |
| NC(=O)c1ccccc1O[C@H]1C[C@]2(C1)C[C@H](N1C(=O)NC(c3ccccc3Cl)C1=O)C2 (stereo partly drawn) | 2 | – |
| Cc1c[nH]c2nccc(Oc3ccc(Nc4cc(Cl)nc(N)n4)cc3F)c12 | – | half-life [6]: 1.2 h; bioavailability [7]: 48% |
| COc1cc(-c2cc(C)cc(C)n2)sc1C(=O)NCC(O)CO (stereo not drawn) | 14 | – |

Further lines, with some results ahead:

| IC50 [1] [nM] | SMILES | other results |
| --- | --- | --- |
| < 3 | COc1cccc(CN2C(=O)N(c3ccc(-c4cn[nH]c4)c(OC)c3)CC23CC3)c1 | – |
| < 10 | COc1cccc(CN2CCN(c3ccc4c(c3)CCc3n[nH]cc3-4)C2=O)c1 | – |
| 1.45 | NC[C@@H](C(=O)Nc1ccc2cnsc2c1)c1ccc(CO)cc1 | – |
